Assay results taken from ChEMBL document CHEMBL1201862, “PubChem BioAssay data set” (2004).
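Test compounds were applied to cells in 96-well plates for 48 hours at 5 doses. Abbreviation: GI50, concentration required for 50% inhibition of growth.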 Calls of active or inactive are those of the source. Rule as the data show it: active = GI50 up to about 1.1 µM and inactive = higher.

Key:
Assay in all cases: NCI anticancer screen, dose series, 48 h
[1] = system: HL-60
[2] = system: OVCAR-8
[3] = system: OVCAR-5
[4] = system: MOLT-4
[5] = system: SK-MEL-5
[6] = system: SF-295
[7] = system: EKVX
[8] = system: CAKI-1
[9] = system: MCF7
[10] = system: SF-268
[11] = system: K562
[12] = system: DU-145
[13] = system: CCRF-CEM
[14] = system: A498
[15] = system: U-251
[16] = system: 786-0
[17] = system: COLO 205
[18] = system: HT-29
[19] = system: SW-620
[20] = system: HCC 2998

Row | Compound | GI50 [1] | GI50 [2] | GI50 [3] | GI50 [4] | GI50 [5] | GI50 [6] | GI50 [7] | GI50 [8] | GI50 [9] | GI50 [10] | GI50 [11] | GI50 [12] | GI50 [13] | GI50 [14] | GI50 [15] | GI50 [16] | GI50 [17] | GI50 [18] | GI50 [19] | GI50 [20]
1 | Cc1ccc(CC(=O)Nc2ccc(NC(=O)/C=C/NC(=O)/C=C/c3ccc(-c4ccccc4)cc3)cc2C(=O)c2ccccc2)cc1 | 16.9 µM (inactive) | 0.871 µM (active) | 2.09 µM (inactive) | 4.17 µM (inactive) | 2.09 µM (inactive) | 1.36 µM (inactive) | 1.32 µM (inactive) | 3.29 µM (inactive) | 1.72 µM (inactive) | 2.62 µM (inactive) | 11.1 µM (inactive) | 3.94 µM (inactive) | 2.16 µM (inactive) | 2.31 µM (inactive) | 1.85 µM (inactive) | 1.6 µM (inactive) | 1.75 µM (inactive) | 5.06 µM (inactive) | 1.57 µM (inactive) | 0.0237 µM (active)
2 | O=C(/C=C1\C[C@H]2C=Nc3ccccc3C(=O)N2C1)NCCCCNC(=O)/C=C1\C[C@H]2C=Nc3ccccc3C(=O)N2C1 | 3.3 µM (inactive) | 4.93 µM (inactive) | 19.2 µM (inactive) | 2.91 µM (inactive) | 12.8 µM (inactive) | 19.5 µM (inactive) | 16.7 µM (inactive) | 2.77 µM (inactive) | 12.4 µM (inactive) | 9.95 µM (inactive) | 3.11 µM (inactive) | 15.2 µM (inactive) | 1.39 µM (inactive) | 18.7 µM (inactive) | 3.37 µM (inactive) | 1.75 µM (inactive) | 4.21 µM (inactive) | 14.2 µM (inactive) | 2.55 µM (inactive) | 18 µM (inactive)
3 | Cc1cnc2[nH]c(-c3cccc(Cl)c3)cc(=O)c2c1 | < 0.0176 µM (active) | 0.159 µM (active) |  | 0.0338 µM (active) | 0.0461 µM (active) | 0.0169 µM (active) | > 50.1 µM (inactive) | 0.0495 µM (active) | 0.381 µM (active) | 0.0796 µM (active) | < 0.0151 µM (active) | 0.154 µM (active) | 0.0425 µM (active) | 0.0556 µM (active) | 0.0484 µM (active) | 0.0547 µM (active) | 0.0807 µM (active) | 0.0392 µM (active) | 0.0119 µM (active) | 0.101 µM (active)
4 | COc1cc(C(c2cccc3ccccc23)N2C(=O)CCC2C(=O)NCc2ccccc2)cc(OC)c1OC (stereo not drawn) | 57.7 µM (inactive) | > 100 µM (inactive) | > 100 µM (inactive) | 78 µM (inactive) | > 100 µM (inactive) | > 100 µM (inactive) | > 100 µM (inactive) | > 100 µM (inactive) | > 100 µM (inactive) | > 100 µM (inactive) |  | > 100 µM (inactive) | 93.3 µM (inactive) | > 100 µM (inactive) | > 100 µM (inactive) | > 100 µM (inactive) | > 100 µM (inactive) | > 100 µM (inactive) | > 100 µM (inactive) | > 100 µM (inactive)
5 | O=C1C(NCCF)=C(Cl)C(=O)c2ncccc21 | 0.413 µM (active) | 0.8 µM (active) | 2.04 µM (inactive) | 1.22 µM (inactive) | 0.145 µM (active) | 1.49 µM (inactive) | 1.71 µM (inactive) |  | 0.716 µM (active) | 1.5 µM (inactive) | 0.206 µM (active) | 1.11 µM (active) | 0.204 µM (active) | 1.63 µM (inactive) | 0.689 µM (active) | 1.19 µM (inactive) |  | 2.47 µM (inactive) | 0.378 µM (active) | 1.21 µM (inactive)
6 | C[N+](C)(C)[BH-](Br)C(O)O (stereo not drawn) | > 100 µM (inactive) |  | > 100 µM (inactive) | > 100 µM (inactive) | > 100 µM (inactive) | > 100 µM (inactive) | > 100 µM (inactive) | > 100 µM (inactive) | > 100 µM (inactive) | > 100 µM (inactive) | > 100 µM (inactive) | > 100 µM (inactive) | > 100 µM (inactive) | > 100 µM (inactive) | > 100 µM (inactive) | > 100 µM (inactive) | > 100 µM (inactive) | > 100 µM (inactive) | > 100 µM (inactive) | > 100 µM (inactive)
7 | CC(=O)OCC1OC(O[C@@H]2c3c(O)c4c(c(O)c3C3=C(NN(c5ccc([N+](=O)[O-])cc5[N+](=O)[O-])[Se]3=O)[C@@]2(C)O)C(=O)c2ccccc2C4=O)C(OC(C)=O)C(OC(C)=O)C1OC(C)=O (stereo partly drawn) |  | 0.191 µM (active) | 0.51 µM (active) | 0.0345 µM (active) | 0.2 µM (active) | 0.21 µM (active) | 0.23 µM (active) | 0.274 µM (active) | 0.207 µM (active) | 0.139 µM (active) | 0.118 µM (active) | 0.365 µM (active) | 0.0352 µM (active) | 0.288 µM (active) | 0.14 µM (active) | 0.147 µM (active) | 0.175 µM (active) | 0.239 µM (active) | 0.101 µM (active) | 0.228 µM (active)
8 | CCN(CC)CCC(=O)c1ccc(Cl)c(Cl)c1 | 32.3 µM (inactive) | 37.2 µM (inactive) | > 100 µM (inactive) | 19.9 µM (inactive) | 20.1 µM (inactive) | > 100 µM (inactive) | > 100 µM (inactive) |  | 12.8 µM (inactive) | 20.8 µM (inactive) | 24.8 µM (inactive) | 67.1 µM (inactive) | 17.6 µM (inactive) | 18.5 µM (inactive) | 36.6 µM (inactive) | 17.5 µM (inactive) | 27.2 µM (inactive) | 32.3 µM (inactive) | 19.7 µM (inactive) | 43.6 µM (inactive)
9 | COc1ccc(Nc2nc3cc(C(F)(F)F)ccc3nc2C(=O)O)cc1 | 19.9 µM (inactive) | 19.3 µM (inactive) | 24.2 µM (inactive) | 7.87 µM (inactive) | 16.7 µM (inactive) | 13 µM (inactive) | 22.9 µM (inactive) | 33.2 µM (inactive) | 20.9 µM (inactive) | 17.6 µM (inactive) | 15.2 µM (inactive) | 20.4 µM (inactive) |  | 15.1 µM (inactive) | 13 µM (inactive) | 17.5 µM (inactive) | 21.3 µM (inactive) | 30.3 µM (inactive) | 21.6 µM (inactive) | 14.1 µM (inactive)
10 | CC12CC3(O)OC(O1)C1(COC(=O)c4ccccc4)C3CC21OC1OC(CO)C(O)C(O)C1O (stereo not drawn) | > 100 µM (inactive) | > 100 µM (inactive) | > 100 µM (inactive) | > 100 µM (inactive) | > 100 µM (inactive) | > 100 µM (inactive) | > 100 µM (inactive) | > 100 µM (inactive) | > 100 µM (inactive) | > 100 µM (inactive) |  | > 100 µM (inactive) | > 100 µM (inactive) | > 100 µM (inactive) | > 100 µM (inactive) | > 100 µM (inactive) | > 100 µM (inactive) | > 100 µM (inactive) | > 100 µM (inactive) | > 100 µM (inactive)
11 | Cc1ccc(/N=N/c2c(O)ccc3cc(S(=O)(=O)O)cc(S(=O)(=O)O)c23)cc1 | > 100 µM (inactive) | > 100 µM (inactive) | > 100 µM (inactive) | > 100 µM (inactive) | > 100 µM (inactive) | > 100 µM (inactive) | > 100 µM (inactive) | > 100 µM (inactive) | > 100 µM (inactive) | > 100 µM (inactive) | > 100 µM (inactive) | > 100 µM (inactive) | > 100 µM (inactive) | > 100 µM (inactive) | > 100 µM (inactive) | > 100 µM (inactive) | > 100 µM (inactive) |  | > 100 µM (inactive) | > 100 µM (inactive)
12 | Cc1nn(C(=O)Cc2ccccc2)c2c1C(c1ccccc1[N+](=O)[O-])SC(=N)N2 (stereo not drawn) | > 100 µM (inactive) | > 100 µM (inactive) |  | > 100 µM (inactive) | > 100 µM (inactive) | > 100 µM (inactive) | > 100 µM (inactive) | > 100 µM (inactive) | > 100 µM (inactive) | > 100 µM (inactive) | > 100 µM (inactive) | > 100 µM (inactive) | > 100 µM (inactive) | > 100 µM (inactive) |  | > 100 µM (inactive) | > 100 µM (inactive) | > 100 µM (inactive) | > 100 µM (inactive) | > 100 µM (inactive)
13 | C(/Cc1ccc2c(c1)OCO2)=N\N=C1NCCN1 | 89.1 µM (inactive) | > 100 µM (inactive) | 57.3 µM (inactive) | 52.6 µM (inactive) | 47.3 µM (inactive) | 42.4 µM (inactive) | 61.2 µM (inactive) |  | > 100 µM (inactive) | > 100 µM (inactive) | 43.2 µM (inactive) | > 100 µM (inactive) | > 100 µM (inactive) | 18.8 µM (inactive) | > 100 µM (inactive) | > 100 µM (inactive) | > 100 µM (inactive) | 57.9 µM (inactive) | > 100 µM (inactive) | 92.3 µM (inactive)
14 | CCCSC1=N/C(=C\c2ccco2)C(=O)N1 |  | > 100 µM (inactive) | > 100 µM (inactive) | > 100 µM (inactive) |  | > 100 µM (inactive) | 67.3 µM (inactive) | > 100 µM (inactive) | 36 µM (inactive) | > 100 µM (inactive) |  | > 100 µM (inactive) |  | 89.7 µM (inactive) | > 100 µM (inactive) | > 100 µM (inactive) | > 100 µM (inactive) | > 100 µM (inactive) | > 100 µM (inactive) | > 100 µM (inactive)
